Test [1] addresses T1, SdiA (Salmonella enterica subsp. enterica serovar Typhimurium, UniProt O66040). Kind of test: S. Typhimurium-pJNS25 SdiA reporter, agonism (luminescence). It is filed as cell-based. The source says: (§1) Biological assays for SdiA activity. Cell-based reporter strains that rely on detecting the transcriptional activity of LuxR-type receptors are commonly used to assess the activity of exogenous ligands. We used the S. Typhimurium-pJNS25 reporter strain constructed by Smith and Ahmer and also used by Janssens et al. to examine SdiA activity. This strain naturally produces SdiA and contains a reporter plasmid with the promoter region for srgE fused to the luxABCDE operon of V. fischeri (see Experimental section for details of all strains and plasmids). SdiA activity is thus reported by the production of luciferase and resulting bioluminescence. We also prepared an SdiA reporter in E. coli (JLD271-pJN105SE-pSC11SE) to examine S. Typhimurium SdiA activity in an alternate background and with a different reporter gene output. […] This reporter construct uses an arabinose inducible promoter to produce S. Typhimurium SdiA and the promoter region for srgE fused to lacZ to report SdiA activity. SdiA activity is then measured using standard β-galactosidase assays. In both reporter strains, signal was normalized to the difference between the positive control (10 μM OOHL) and the negative control (1% DMSO; no compound).
(§2) Salmonella SdiA reporter assay. S. Typhimurium-pJNS25 was grown 16–18 h overnight in LB, diluted 1:100 in fresh LB medium, and then incubated for 6 h at 37 °C with shaking at 200 rpm in the presence of compounds (1% DMSO). […] All compounds were screened at 100 μM and 1 μM in triplicate in agonism and antagonism assays. […] Dose–response analyses were performed by preparing dilutions of compounds in DMSO and testing each concentration in the agonism or antagonism assays. Competition dose–response assays (data in Figure 5) were performed in the same manner as the antagonism assays, except instead of OOHL being added to the subculture, the antagonist being tested was added. Non-linear regression curve fits were generated using GraphPad Prism software (version 6) using variable slope (four parameter) dose–response analysis.

The target in test [2] is T1, SdiA. In words: S. Typhimurium-pJNS25 SdiA reporter, competitive antagonism against 10 nM L-OOHL. It is filed as cell-based. The settings on record: for inhibition at 1 µM / Antagonism 1 μM Inhibition (%): 1 μM compound; for inhibition at 1 µM / inhibition at 100 µM / Antagonism 1 μM Inhibition (%) / Antagonism 100 μM Inhibition (%): average ± STD, change in activity from 10 nM 2 (OOHL); for inhibition at 1 µM: read-out: Antagonism 1 μM Inhibition (%); for inhibition at 100 µM / Antagonism 100 μM Inhibition (%): 100 μM compound; for inhibition at 100 µM: read-out: Antagonism 100 μM Inhibition (%).
Description: as §1, §2

Experimental findings from publication PMC6204753, “Non-native autoinducer analogs capable of modulating the SdiA quorum sensing receptor in Salmonella enterica serovar Typhimurium” (Beilstein Journal of Organic Chemistry, 2018) are described below.

Each structure is given as a SMILES string. Entries after “also recorded” stand apart in the source; their conditions may differ.

T1 sequence (O66040 entry or part of it): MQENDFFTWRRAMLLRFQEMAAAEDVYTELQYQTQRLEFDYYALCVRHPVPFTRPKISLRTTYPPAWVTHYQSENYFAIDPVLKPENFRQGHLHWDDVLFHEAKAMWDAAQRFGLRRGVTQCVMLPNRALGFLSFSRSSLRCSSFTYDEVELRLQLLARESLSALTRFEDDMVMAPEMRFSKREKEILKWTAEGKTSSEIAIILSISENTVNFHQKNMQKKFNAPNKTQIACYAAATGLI

For `CCCCCCCC(=O)OCC(O)CO` (racemic) [compound 23, 1-octanoyl-rac-glycerol, reference compound], the “activity in the SdiA reporter assay (in words)” value on SdiA [1] (S. Typhimurium reporter) is reported as “no agonism; also recorded: no activity”. Further, at SdiA [2], the inhibition (as a rule, the share of the control response that was lost under treatment) at 1 µM stood at 8 ± 14% and the inhibition at 100 µM came out at 12 ± 4%.
Regarding `O=C(Oc1c(Br)cc(Br)cc1CNC(=O)c1ccccc1[N+](=O)[O-])c1ccccc1Cl` [19R, reference compound], the Emax at SdiA [1] (maximal activation of the antagonists (partial agonism), Table 3, read-out: activation (%)) came to 40%; on SdiA [2] (maximal inhibition, 100% minus lowest % activity in presence of 10 nM L-OOHL (2), read-out: inhibition (%)), 44%. Besides, the inhibition at 1 µM on SdiA [2] came to 43 ± 10%. The inhibition at 100 µM on SdiA [2] came to 38 ± 11%.
With `CCCC(=O)N[C@H]1CCOC1=O` [A1, reference compound], on SdiA [1] (agonism dose–response, read-out: EC50), the EC50 (commonly the concentration that produces a half-maximal response) turned out to be 578 nM. Also, the “activation (%)” value on SdiA [1] (maximal activity (efficacy) from agonism dose–response, 10 μM OOHL = 100%, DMSO = 0%) came to 100%. In addition, at SdiA [2], the “Antagonism 1 μM Inhibition (%)” value is 7 ± 5% and the “Antagonism 100 μM Inhibition (%)” value was -10 ± 11%.
Turning to `O=C(Cc1ccccc1)N[C@H]1CCSC1=O` [F9], at SdiA [2], the “Antagonism 1 μM Inhibition (%)” value is reported as -1 ± 4% and the “Antagonism 100 μM Inhibition (%)” value is reported as -13 ± 1%.
As for `O=C(Cc1ccc(Br)cc1)N[C@H]1CCSC1=O` [F10], at SdiA [2], the “Antagonism 1 μM Inhibition (%)” value was found to be 8 ± 12% and the “Antagonism 100 μM Inhibition (%)” value is reported as -3 ± 7%.
Turning to `O=C(Cc1cccc([N+](=O)[O-])c1)NC1CCCC1` [F18], at SdiA [2], the “Antagonism 1 μM Inhibition (%)” value is listed as 4 ± 6% and the “Antagonism 100 μM Inhibition (%)” value stood at 15 ± 3%.
Consider `O=C(Cc1cccc([N+](=O)[O-])c1)Nc1ccccc1` [F25], for which, at SdiA [2], the “Antagonism 1 μM Inhibition (%)” value is 20 ± 4% and the “Antagonism 100 μM Inhibition (%)” value was -2 ± 14%.
For `O=C(Cc1cccc([N+](=O)[O-])c1)NCc1cccc([N+](=O)[O-])c1` [F55], at SdiA [2], the “Antagonism 1 μM Inhibition (%)” value amounted to 11 ± 4% and the “Antagonism 100 μM Inhibition (%)” value came to 26 ± 7%.
Consider `CCCCCC(O)CC(=O)N[C@H]1CCOC1=O` (stereo partly shown) [H2], for which, at SdiA [2], the “Antagonism 1 μM Inhibition (%)” value is 8 ± 5% and the “Antagonism 100 μM Inhibition (%)” value worked out at 12 ± 16%.
Taken in the same sequence, the figures for `CCCCCCCCCCCCCC(O)CC(=O)N[C@H]1CCOC1=O` (stereo partly shown) [H6] were 15 ± 1% and 15 ± 13%.
Regarding `O=C(CC(O)Cc1cccc(I)c1)N[C@H]1CCOC1=O` (stereo partly shown) [H15], at SdiA [2], the “Antagonism 1 μM Inhibition (%)” value turned out to be 6 ± 14% and the “Antagonism 100 μM Inhibition (%)” value came to 19 ± 11%.
The corresponding values for `O=C(CC(=O)N[C@H]1CCOC1=O)Cc1cccc(Cl)c1` [H23] are 12 ± 8% and 1 ± 9%.
Turning to `CCCCCCCCCCCCCC(=O)CC(=O)N[C@H]1CCOC1=O` [H25], at SdiA [2], the “Antagonism 1 μM Inhibition (%)” value was determined as 1 ± 13% and the “Antagonism 100 μM Inhibition (%)” value is -9 ± 15%.
Regarding `CCCCCCCCCCCCCC(=O)N[C@H]1CCOC1=O` [H26], at SdiA [2], the “Antagonism 1 μM Inhibition (%)” value is recorded as 5 ± 14% and the “Antagonism 100 μM Inhibition (%)” value came out at 0 ± 8%. For the same molecule, on SdiA [2] (S. Typhimurium reporter), the “SdiA antagonism (in words)” value was “failed to inhibit SdiA”.
For the molecule `O=C(N[C@H]1CCOC1=O)c1ccccc1Br` [Q1], at SdiA [2], the “Antagonism 1 μM Inhibition (%)” value came to 2 ± 5% and the “Antagonism 100 μM Inhibition (%)” value is reported as -3 ± 18%.
The corresponding values for `O=C(N[C@H]1CCOC1=O)c1cccc(Br)c1` [Q2] are 17 ± 2% and 9 ± 13%.
`O=C(N[C@H]1CCOC1=O)c1ccc(F)cc1` [Q3]: on SdiA [2], the “Antagonism 1 μM Inhibition (%)” value was 34 ± 2% and the “Antagonism 100 μM Inhibition (%)” value is -26 ± 17%.
Taken in the same sequence, the figures for `O=C(N[C@H]1CCOC1=O)c1ccc(Cl)cc1` [Q4] were 30 ± 4% and -25 ± 15%.
On to `O=C(N[C@H]1CCOC1=O)c1ccc(I)cc1` [Q5], for which, on SdiA [2], the “Antagonism 1 μM Inhibition (%)” value came to 28 ± 10% and the “Antagonism 100 μM Inhibition (%)” value was -14 ± 10%.
For the molecule `COc1ccc(C(=O)N[C@H]2CCOC2=O)cc1` [Q6], on SdiA [2], the “Antagonism 1 μM Inhibition (%)” value is on record as 26 ± 18% and the “Antagonism 100 μM Inhibition (%)” value is reported as -6 ± 14%.
Turning to `O=C(N[C@H]1CCOC1=O)c1ccc([N+](=O)[O-])cc1` [Q7], on SdiA [2], the “Antagonism 1 μM Inhibition (%)” value turned out to be 28 ± 7% and the “Antagonism 100 μM Inhibition (%)” value worked out at 20 ± 9%.
`Cc1ccc(C(=O)N[C@H]2CCOC2=O)cc1` [Q8]: on SdiA [2], the “Antagonism 1 μM Inhibition (%)” value is reported as 17 ± 3% and the “Antagonism 100 μM Inhibition (%)” value came out at 11 ± 3%.
On to `O=C(N[C@H]1CCOC1=O)c1ccc2c(c1)OCO2` [Q11], for which, at SdiA [2], the “Antagonism 1 μM Inhibition (%)” value was 7 ± 7% and the “Antagonism 100 μM Inhibition (%)” value is -2 ± 12%.
Consider `O=C(N[C@H]1CCOC1=O)c1ccc(-c2ccccc2)cc1` [Q12], for which, on SdiA [2], the “Antagonism 1 μM Inhibition (%)” value amounted to 20 ± 9% and the “Antagonism 100 μM Inhibition (%)” value came out at 26 ± 14%.
The corresponding values for `CC(C)(C)OC(=O)Nc1ccc(C(=O)N[C@H]2CCOC2=O)cc1` [Q13] are 19 ± 8% and -14 ± 2%.
`CCOc1ccc(C(=O)N[C@H]2CCOC2=O)cc1` [R1]: at SdiA [2], the “Antagonism 1 μM Inhibition (%)” value stood at 22 ± 6% and the “Antagonism 100 μM Inhibition (%)” value is on record as 13 ± 8%.
As to `CCCOc1ccc(C(=O)N[C@H]2CCOC2=O)cc1` [R2], on SdiA [2], the “Antagonism 1 μM Inhibition (%)” value was 16 ± 9% and the “Antagonism 100 μM Inhibition (%)” value is reported as 11 ± 6%.
Regarding `CC(C)Oc1ccc(C(=O)N[C@H]2CCOC2=O)cc1` [R3], at SdiA [2], the “Antagonism 1 μM Inhibition (%)” value came to 23 ± 8% and the “Antagonism 100 μM Inhibition (%)” value is recorded as 11 ± 10%.
In the case of `CCCCOc1ccc(C(=O)N[C@H]2CCOC2=O)cc1` [R4], on SdiA [2], the “Antagonism 1 μM Inhibition (%)” value is listed as 23 ± 9% and the “Antagonism 100 μM Inhibition (%)” value was 11 ± 12%.
As for `CCCCCOc1ccc(C(=O)N[C@H]2CCOC2=O)cc1` [R5], on SdiA [2], the “Antagonism 1 μM Inhibition (%)” value was 10 ± 18% and the “Antagonism 100 μM Inhibition (%)” value was -1 ± 9%.
Take `O=C(N[C@H]1CCOC1=O)C1CCCC1` [S4]: on SdiA [2], the “Antagonism 1 μM Inhibition (%)” value worked out at 27 ± 11% and the “Antagonism 100 μM Inhibition (%)” value is -8 ± 11%.
Regarding `O=C(N[C@H]1CCOC1=O)C1CCCCC1` [S5], at SdiA [2], the “Antagonism 1 μM Inhibition (%)” value is on record as 19 ± 4% and the “Antagonism 100 μM Inhibition (%)” value stood at 13 ± 10%.
For `CCCCCCCCCC(=O)CC(=O)N[C@H]1CCOC1=O` [compound 1, reference compound], on SdiA [2], the “Antagonism 1 μM Inhibition (%)” value is 2 ± 17% and the “Antagonism 100 μM Inhibition (%)” value is 15 ± 16%.
As for `CCCC(=O)CC(=O)N[C@H]1CCOC1=O` [compound 3, reference compound], on SdiA [2], the “Antagonism 1 μM Inhibition (%)” value was 6 ± 16% and the “Antagonism 100 μM Inhibition (%)” value is 20 ± 2%.
With `CCCCCCC(=O)N[C@H]1CCOC1=O` [compound 4, reference compound], on SdiA [2], the “Antagonism 1 μM Inhibition (%)” value is given as 26 ± 4% and the “Antagonism 100 μM Inhibition (%)” value turned out to be 16 ± 5%.
Regarding `O=C(CC(=O)N[C@H]1CCOC1=O)Cc1ccccc1` [compound 5, reference compound], on SdiA [2], the “Antagonism 1 μM Inhibition (%)” value stood at 23 ± 9% and the “Antagonism 100 μM Inhibition (%)” value amounted to 17 ± 3%.
Take `O=C(CCCc1ccccc1)N[C@H]1CCOC1=O` [compound 6, reference compound]: at SdiA [2], the “Antagonism 1 μM Inhibition (%)” value stood at 31 ± 6% and the “Antagonism 100 μM Inhibition (%)” value was 21 ± 10%.
For `O=C(Cc1ccc(Br)cc1)N[C@H]1CCOC1=O` [compound 7, reference compound], at SdiA [2], the “Antagonism 1 μM Inhibition (%)” value was 26 ± 9% and the “Antagonism 100 μM Inhibition (%)” value amounted to 21 ± 10%.
As to `O=C(CCc1ccc(Br)cc1)N[C@H]1CCOC1=O` [compound 8, reference compound], at SdiA [2], the “Antagonism 1 μM Inhibition (%)” value stood at 15 ± 8% and the “Antagonism 100 μM Inhibition (%)” value is on record as 4 ± 3%.
On to `O=C(CCc1ccc(C(F)(F)F)cc1)N[C@H]1CCOC1=O` [compound 9, reference compound], for which, on SdiA [2], the “Antagonism 1 μM Inhibition (%)” value is 32 ± 10% and the “Antagonism 100 μM Inhibition (%)” value was 11 ± 16%.
For `O=C(CCCOc1ccc(Cl)cc1)N[C@H]1CCOC1=O` [compound 10, reference compound], at SdiA [2], the “Antagonism 1 μM Inhibition (%)” value is reported as 9 ± 12% and the “Antagonism 100 μM Inhibition (%)” value amounted to 5 ± 15%.
Taken in the same sequence, the figures for `CCCCCCCCCC(=O)CC(=O)Nc1cccc(OC)c1` [compound 14, reference compound] were 22 ± 19% and 12 ± 8%.
Take `CCCCCCCCCC(=O)CC(=O)NC1CCCCC1=O` (stereo not shown) [compound 15, reference compound]: on SdiA [2], the “Antagonism 1 μM Inhibition (%)” value is 16 ± 16% and the “Antagonism 100 μM Inhibition (%)” value turned out to be 13 ± 8%.
Take `CCCCCCCCCC(=O)NC1CCCC1` [compound 17, reference compound]: on SdiA [2], the “Antagonism 1 μM Inhibition (%)” value was determined as 26 ± 12% and the “Antagonism 100 μM Inhibition (%)” value came to 28 ± 5%.
